{
  "source": "patent US8946383B2",
  "about": "“Obtaining cocoa extracts rich in bioactive peptides with ACE and PEP enzyme inhibitory activity” (Naturex, priority 2008, dated 2015)",
  "system": "CL4176 transgenic strain of C. elegans",
  "assay": "Paralysis assay after induction of Ab peptide expression in C. elegans",
  "assay_type": "in vivo, Caenorhabditis elegans",
  "conditions": "third day after inducing Ab peptide expression at 23° C.; 100 μl of fraction per plate; ZPP 0.1 mM",
  "protocol": "An oxidative stress assay using the CL4176 transgenic strain of C. elegans was carried out, characterized by expressing the human amyloid beta-peptide (Abl-42) after temperature induction.\nPrior data in the literature indicate that the formation of amyloid beta-peptide plaques is preceded by oxidative stress (Drake et al, “Oxidative stress precedes fibrillar deposition of Alzheimer's disease amyloid beta-peptide (1-42) in a transgenic Caenorhabditis elegans model” Neurobiol Aging 2003, 24(3):415-20). Therefore, it is interesting to evaluate if the hypothetical reduction of fibrillar deposition of Ab peptides in the neurons produced by the action of a molecule or compound gives rise to greater resistance against oxidative stress treatments. Furthermore, the expression of said peptide in these transgenic animals produces a paralysis that can be evaluated after adding the molecule or compound of interest.\nTo carry out the experiment, worms of the CL4176 strain having a synchronized age by means of plate cultivation of NG at 16° C. were obtained. The eggs were collected in NG plates which contained 100 μl of each peptide fraction (F11, F12, F14 and F18). […] For the first 3 days after induction, the number of worms paralyzed in each assayed condition was analyzed. […] The plates were incubated at 23° C. and after 5 hours the total number of worms that survived treatment were counted.",
  "note": "Where a SMILES comes first, the peptide text is derived from it. The star is where a group is joined. Cbz = O=C(OCc1ccccc1)*",
  "data": [
    {"smiles": "O=C[C@@H]1CCCN1C(=O)[C@@H]1CCCN1C(=O)OCc1ccccc1", "note": "[Z-prolyl prolinal] (Cbz-Pro-Pro-aldehyde)", "values": [
      {"measurement": "percentage of non-paralyzed worms", "value": 99.44, "unit": "%"}
    ]}
  ]
}
